Data on four compounds can be found in patent US20050053591A1, “Compositions and uses of motor protein-binding moieties” (Insert Therapeutics, Inc., priority 2002, published 2005).

For test [1], the target named is wild-type FKBP (Homo sapiens, UniProt P62942). The settings on record: wild-type FKBP versus FV; cited from earlier work.
Test [2] addresses FKBPs with a single amino acid substitution, Phe36Val (FV) (Homo sapiens, UniProt P62942, F37V). The note with it: FKBP Phe36Val (FV); cited from earlier work.
Test [3] deals with PC3 cells. The experiment in a line: Dynein-mediated transport to the nuclear surface in cultured cells (fluorescence microscopy, FIG. 1). It is filed as cell-based. The note with it: rhodamine-labeled GFP plasmid conjugated to peptide, formulated with CD-IPEI at 5+/-, 1 μg plasmid, 5 hours exposure. The method, then:
PC3 cells were plated at 100,000 cells/mL in 6-well plates containing a clean glass coverslip at the bottom of each well one day before transfection. For transfection, 1 μg of plasmid was mixed with a linear, cyclodextrin polycation (CD-IPEI) at 5+/− and mixed with cells in 1 mL of Opti-MEM. Transfection solution was removed 5 hours after exposure and replaced with complete media. Cells were washed with PBS, fixed with formalin (0.5 mL for 10 minutes), and washed 3 times with PBS. The coverslips were then removed from the wells and mounted on glass slides with Prolong Antifade (Molecular Probes, Eugene, Oreg.).

Test [4] has as its target DLC8 (Homo sapiens, UniProt P63167). The settings on record: nine-residue peptide from the Bim protein (Lo et al.); cited from earlier work.

Sequence of wild-type FKBP (P62942 whole entry): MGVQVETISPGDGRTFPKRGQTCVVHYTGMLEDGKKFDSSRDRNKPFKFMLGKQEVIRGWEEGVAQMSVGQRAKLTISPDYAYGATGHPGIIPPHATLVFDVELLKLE
Sequence of FKBPs with a single amino acid substitution, Phe36Val (FV) (P62942 whole entry F37V): as the sequence (P62942 whole entry) above, with F37V counted along it
Sequence of DLC8 (P63167 whole entry, species assumed): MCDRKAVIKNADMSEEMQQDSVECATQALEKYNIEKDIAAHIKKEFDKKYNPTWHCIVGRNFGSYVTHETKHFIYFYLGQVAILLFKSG

For `CC[C@H](C(=O)N1CCCC[C@H]1C(=O)O[C@H](CCc1ccc(OC)c(OC)c1)c1cccc(OCC(=O)NCCNC(=O)COc2cccc([C@@H](CCc3ccc(OC)c(OC)c3)OC(=O)[C@@H]3CCCCN3C(=O)[C@@H](CC)c3cc(OC)c(OC)c(OC)c3)c2)c1)c1cc(OC)c(OC)c(OC)c1` [AP1903], in test [1], the “lower affinity to the wild-type protein relative to Phe36Val FKBP” value is recorded as 1000 fold. Besides, the binding affinity entry in test [2] is “subnanomolar”.
On to `CC[C@H](C(=O)N1CCCC[C@H]1C(=O)O[C@H](CCc1ccc(OC)c(OC)c1)c1cccc(OCC(=O)NCC(CNC(=O)COc2cccc([C@@H](CCc3ccc(OC)c(OC)c3)OC(=O)[C@@H]3CCCCN3C(=O)[C@@H](CC)c3cc(OC)c(OC)c(OC)c3)c2)CN(C)C)c1)c1cc(OC)c(OC)c(OC)c1` [AP20187], for which, in test [1], the “lower affinity to the wild-type protein relative to Phe36Val FKBP” value is recorded as 1000 fold. In addition, the binding affinity result in test [2] is listed as “subnanomolar”.
CSYSKETQPL [dynein-binding peptide]: in test [3], the “transport of plasmid DNA toward the nucleus” value was “facilitates transport toward the nucleus”.
Regarding “MSCDKSTQT [nine-peptide from the Bim protein]”, the DLC8 binding entry in test [4] was “can bind DLC8”.
